From paper PMC8371461 (Frontiers in Pharmacology, 2021)

Experiments:
AKT = AKT phosphorylation at the protein level in PSC; type: cell-based, mouse; details: 10 µM, 10 min, 1 and 3 h after exposure
[1] = biological target: T1, ABL1(T315I)-phosphorylated (Homo sapiens, UniProt P00519, T315I); experiment: kinome scan; type: binding; details: 10 µM
T1 construct: purchased DiscoverX (KINOMEscan)

BMPR1B = biological target: T2, BMPR1B (Homo sapiens, UniProt O00238); experiment: kinome scan; type: binding; details: 10 µM
T2 construct: purchased DiscoverX (KINOMEscan)

BMX = biological target: T3, BMX (Homo sapiens, UniProt P51813); experiment: kinome scan; type: binding; details: 10 µM
T3 construct: purchased DiscoverX (KINOMEscan)

BTK = biological target: T4, BTK (Homo sapiens, UniProt Q06187); experiment: kinome scan; type: binding; details: 10 µM
T4 construct: purchased DiscoverX (KINOMEscan)

CDK2 = biological target: T5, CDK2 (Homo sapiens, UniProt P24941); experiment: kinome scan; type: binding; details: 10 µM
T5 construct: purchased DiscoverX (KINOMEscan)

CDK8 = biological target: T6, CDK8 (Homo sapiens, UniProt P49336); experiment: kinome scan; type: binding; details: 10 µM
T6 construct: purchased DiscoverX (KINOMEscan)

CDKL1 = biological target: T7, CDKL1 (Homo sapiens, UniProt Q00532); experiment: kinome scan; type: binding; details: 10 µM
T7 construct: purchased DiscoverX (KINOMEscan)

CIT = biological target: T8, CIT (Homo sapiens, UniProt O14578); experiment: kinome scan; type: binding; details: 10 µM
T8 construct: purchased DiscoverX (KINOMEscan)

DDR1 = biological target: T9, DDR1 (Homo sapiens, UniProt Q08345); experiment: kinome scan; type: binding; details: 10 µM
T9 construct: purchased DiscoverX (KINOMEscan)

DRAK1 = biological target: T10, DRAK1 (Homo sapiens, UniProt Q9UEE5); experiment: kinome scan; type: binding; details: 10 µM
T10 construct: purchased DiscoverX (KINOMEscan)

EIF2AK1 = biological target: T11, EIF2AK1 (Homo sapiens, UniProt Q9BQI3); experiment: kinome scan; type: binding; details: 10 µM
T11 construct: purchased DiscoverX (KINOMEscan)

FGFR2 = biological target: T12, FGFR2 (Homo sapiens, UniProt P21802); experiment: kinome scan; type: binding; details: 10 µM
T12 construct: purchased DiscoverX (KINOMEscan)

FLT3 = biological target: T13, FLT3 (Homo sapiens, UniProt P36888); experiment: kinome scan; type: binding
T13 construct: purchased DiscoverX (KINOMEscan)
T13 sequence (P36888 27-993): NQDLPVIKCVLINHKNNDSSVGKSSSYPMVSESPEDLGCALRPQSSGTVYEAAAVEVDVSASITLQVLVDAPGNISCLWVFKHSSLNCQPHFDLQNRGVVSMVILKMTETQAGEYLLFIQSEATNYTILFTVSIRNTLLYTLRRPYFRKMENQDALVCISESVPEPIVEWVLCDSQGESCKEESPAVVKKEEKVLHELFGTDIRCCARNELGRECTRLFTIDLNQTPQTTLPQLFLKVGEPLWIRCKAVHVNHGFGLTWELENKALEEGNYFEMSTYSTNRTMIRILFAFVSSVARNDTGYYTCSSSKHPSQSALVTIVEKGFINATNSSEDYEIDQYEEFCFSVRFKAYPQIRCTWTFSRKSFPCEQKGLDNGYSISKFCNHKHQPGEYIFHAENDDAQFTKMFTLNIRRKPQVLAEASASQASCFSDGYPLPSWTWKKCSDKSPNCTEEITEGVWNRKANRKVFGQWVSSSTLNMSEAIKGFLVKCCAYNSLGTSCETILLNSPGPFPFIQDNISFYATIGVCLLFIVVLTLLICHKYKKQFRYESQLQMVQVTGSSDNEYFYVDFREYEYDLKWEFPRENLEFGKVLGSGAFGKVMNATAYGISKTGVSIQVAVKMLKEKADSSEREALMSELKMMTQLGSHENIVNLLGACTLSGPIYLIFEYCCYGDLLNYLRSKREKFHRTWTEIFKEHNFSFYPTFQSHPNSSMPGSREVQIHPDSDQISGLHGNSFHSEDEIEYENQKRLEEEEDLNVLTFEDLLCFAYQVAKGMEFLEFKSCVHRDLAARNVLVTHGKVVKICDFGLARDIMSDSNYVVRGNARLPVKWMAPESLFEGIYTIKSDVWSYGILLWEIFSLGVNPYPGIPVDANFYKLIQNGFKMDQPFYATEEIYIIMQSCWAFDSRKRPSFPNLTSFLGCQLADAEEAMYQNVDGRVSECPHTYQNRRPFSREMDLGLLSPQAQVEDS

HIPK1 = biological target: T14, HIPK1 (Homo sapiens, UniProt Q86Z02); experiment: kinome scan; type: binding; details: 10 µM
T14 construct: purchased DiscoverX (KINOMEscan)

JNK3 = biological target: T15, JNK3 (Homo sapiens, UniProt P53779); experiment: kinome scan; type: binding; details: 10 µM
T15 construct: purchased DiscoverX (KINOMEscan)

LKB1 = biological target: T16, LKB1 (Homo sapiens, UniProt Q15831); experiment: kinome scan; type: binding; details: 10 µM
T16 construct: purchased DiscoverX (KINOMEscan)

LRRK2 = biological target: T17, LRRK2 (Homo sapiens, UniProt Q5S007); experiment: kinome scan; type: binding; details: 10 µM
T17 construct: purchased DiscoverX (KINOMEscan)

MAK = biological target: T18, MAK (Homo sapiens, UniProt P20794); experiment: kinome scan; type: binding; details: 10 µM
T18 construct: purchased DiscoverX (KINOMEscan)

MERTK = biological target: T19, MERTK (Homo sapiens, UniProt Q12866); experiment: kinome scan; type: binding; details: 10 µM
T19 construct: purchased DiscoverX (KINOMEscan)

MLCK = biological target: T20, MLCK (Homo sapiens, UniProt Q32MK0); experiment: kinome scan; type: binding; details: 10 µM
T20 construct: purchased DiscoverX (KINOMEscan)
T20 sequence (Q32MK0 whole entry): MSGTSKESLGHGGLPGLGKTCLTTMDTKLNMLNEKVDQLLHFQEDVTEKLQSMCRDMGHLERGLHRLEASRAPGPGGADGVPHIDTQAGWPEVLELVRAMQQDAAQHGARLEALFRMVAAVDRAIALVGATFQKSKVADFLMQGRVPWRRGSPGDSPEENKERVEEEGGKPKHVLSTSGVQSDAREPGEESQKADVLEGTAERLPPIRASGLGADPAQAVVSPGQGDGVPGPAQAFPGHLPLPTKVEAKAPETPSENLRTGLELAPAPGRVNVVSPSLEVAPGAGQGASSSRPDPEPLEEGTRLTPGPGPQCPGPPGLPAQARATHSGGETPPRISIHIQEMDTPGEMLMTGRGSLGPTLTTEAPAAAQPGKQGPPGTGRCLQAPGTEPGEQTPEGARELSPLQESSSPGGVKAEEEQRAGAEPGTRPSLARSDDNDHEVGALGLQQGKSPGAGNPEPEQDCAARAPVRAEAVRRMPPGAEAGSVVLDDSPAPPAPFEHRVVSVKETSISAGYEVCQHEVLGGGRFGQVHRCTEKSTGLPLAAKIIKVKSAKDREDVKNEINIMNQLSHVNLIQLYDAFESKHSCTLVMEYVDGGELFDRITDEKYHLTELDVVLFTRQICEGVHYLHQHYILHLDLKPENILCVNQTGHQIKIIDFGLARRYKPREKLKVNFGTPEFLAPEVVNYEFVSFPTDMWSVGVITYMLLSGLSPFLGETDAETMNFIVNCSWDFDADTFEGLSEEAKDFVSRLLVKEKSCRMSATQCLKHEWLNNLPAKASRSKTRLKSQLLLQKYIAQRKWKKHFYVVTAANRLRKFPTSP

MYLK = biological target: T21, MYLK (Homo sapiens, UniProt Q15746); experiment: kinome scan; type: binding; details: 10 µM
T21 construct: purchased DiscoverX (KINOMEscan)

NEK11 = biological target: T22, NEK11 (Homo sapiens, UniProt Q8NG66); experiment: kinome scan; type: binding; details: 10 µM
T22 construct: purchased DiscoverX (KINOMEscan)

NEK7 = biological target: T23, NEK7 (Homo sapiens, UniProt Q8TDX7); experiment: kinome scan; type: binding; details: 10 µM
T23 construct: purchased DiscoverX (KINOMEscan)
T23 sequence (Q8TDX7 whole entry): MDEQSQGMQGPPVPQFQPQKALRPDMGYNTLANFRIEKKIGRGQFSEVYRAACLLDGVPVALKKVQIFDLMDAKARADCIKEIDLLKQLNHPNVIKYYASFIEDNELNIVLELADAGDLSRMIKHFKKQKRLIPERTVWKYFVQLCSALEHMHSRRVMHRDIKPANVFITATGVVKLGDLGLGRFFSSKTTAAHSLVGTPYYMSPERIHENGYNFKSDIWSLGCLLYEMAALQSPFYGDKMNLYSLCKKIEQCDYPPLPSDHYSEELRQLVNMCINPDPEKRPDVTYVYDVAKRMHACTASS

PCTK2 = biological target: T24, PCTK2 (Homo sapiens, UniProt Q00537); experiment: kinome scan; type: binding; details: 10 µM
T24 construct: purchased DiscoverX (KINOMEscan)
T24 sequence (Q00537 whole entry): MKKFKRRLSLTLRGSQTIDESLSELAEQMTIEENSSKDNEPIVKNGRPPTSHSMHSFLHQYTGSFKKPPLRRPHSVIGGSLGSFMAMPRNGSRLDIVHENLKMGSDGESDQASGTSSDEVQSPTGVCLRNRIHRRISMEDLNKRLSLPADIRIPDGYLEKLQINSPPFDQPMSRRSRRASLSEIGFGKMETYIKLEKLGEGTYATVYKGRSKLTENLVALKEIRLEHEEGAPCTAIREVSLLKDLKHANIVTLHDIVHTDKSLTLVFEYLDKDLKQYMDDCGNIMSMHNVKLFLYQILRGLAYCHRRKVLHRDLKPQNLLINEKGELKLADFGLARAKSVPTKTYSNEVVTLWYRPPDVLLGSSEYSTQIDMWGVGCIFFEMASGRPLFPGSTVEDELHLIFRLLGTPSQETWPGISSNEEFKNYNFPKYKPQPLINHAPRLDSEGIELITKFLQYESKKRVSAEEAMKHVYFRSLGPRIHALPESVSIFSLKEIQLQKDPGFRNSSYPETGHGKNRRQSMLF

PDPK1 = biological target: T25, PDPK1 (Homo sapiens, UniProt O15530); experiment: kinome scan; type: binding; details: 10 µM
T25 construct: purchased DiscoverX (KINOMEscan)

PIP5K2C = biological target: T26, PIP5K2C (Homo sapiens, UniProt Q8TBX8); experiment: kinome scan; type: binding
T26 construct: purchased DiscoverX (KINOMEscan)
T26 sequence (Q8TBX8 whole entry): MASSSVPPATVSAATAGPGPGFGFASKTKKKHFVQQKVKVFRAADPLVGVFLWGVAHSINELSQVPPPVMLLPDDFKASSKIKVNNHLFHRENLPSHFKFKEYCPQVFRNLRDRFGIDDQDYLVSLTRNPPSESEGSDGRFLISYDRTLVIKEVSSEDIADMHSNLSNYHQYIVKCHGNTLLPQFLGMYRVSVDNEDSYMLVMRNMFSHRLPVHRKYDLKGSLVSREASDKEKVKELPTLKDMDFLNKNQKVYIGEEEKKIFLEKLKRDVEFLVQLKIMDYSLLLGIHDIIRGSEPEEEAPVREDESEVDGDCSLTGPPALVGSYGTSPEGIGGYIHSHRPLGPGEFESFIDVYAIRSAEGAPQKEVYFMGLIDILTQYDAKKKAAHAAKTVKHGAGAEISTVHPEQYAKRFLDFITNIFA

PRKCH = biological target: T27, PRKCH (Homo sapiens, UniProt P24723); experiment: kinome scan; type: binding; details: 10 µM
T27 construct: purchased DiscoverX (KINOMEscan)

PRKD3 = biological target: T28, PRKD3 (Homo sapiens, UniProt O94806); experiment: kinome scan; type: binding; details: 10 µM
T28 construct: purchased DiscoverX (KINOMEscan)

RAF1 = biological target: T29, RAF1 (Homo sapiens, UniProt P04049); experiment: kinome scan; type: binding; details: 10 µM
T29 construct: purchased DiscoverX (KINOMEscan)

RET(V804L) = biological target: T30, RET(V804L) (Homo sapiens, UniProt P07949, V804L); experiment: kinome scan; type: binding; details: 10 µM
T30 construct: purchased DiscoverX (KINOMEscan)

RET(V804M) = biological target: T31, RET(V804M) (Homo sapiens, UniProt P07949, V804M); experiment: kinome scan; type: binding; details: 10 µM
T31 construct: purchased DiscoverX (KINOMEscan)

RIOK1 = biological target: T32, RIOK1 (Homo sapiens, UniProt Q9BRS2); experiment: kinome scan; type: binding; details: 10 µM
T32 construct: purchased DiscoverX (KINOMEscan)

RIPK4 = biological target: T33, RIPK4 (Homo sapiens, UniProt P57078); experiment: kinome scan; type: binding; details: 10 µM
T33 construct: purchased DiscoverX (KINOMEscan)
T33 sequence (P57078 whole entry): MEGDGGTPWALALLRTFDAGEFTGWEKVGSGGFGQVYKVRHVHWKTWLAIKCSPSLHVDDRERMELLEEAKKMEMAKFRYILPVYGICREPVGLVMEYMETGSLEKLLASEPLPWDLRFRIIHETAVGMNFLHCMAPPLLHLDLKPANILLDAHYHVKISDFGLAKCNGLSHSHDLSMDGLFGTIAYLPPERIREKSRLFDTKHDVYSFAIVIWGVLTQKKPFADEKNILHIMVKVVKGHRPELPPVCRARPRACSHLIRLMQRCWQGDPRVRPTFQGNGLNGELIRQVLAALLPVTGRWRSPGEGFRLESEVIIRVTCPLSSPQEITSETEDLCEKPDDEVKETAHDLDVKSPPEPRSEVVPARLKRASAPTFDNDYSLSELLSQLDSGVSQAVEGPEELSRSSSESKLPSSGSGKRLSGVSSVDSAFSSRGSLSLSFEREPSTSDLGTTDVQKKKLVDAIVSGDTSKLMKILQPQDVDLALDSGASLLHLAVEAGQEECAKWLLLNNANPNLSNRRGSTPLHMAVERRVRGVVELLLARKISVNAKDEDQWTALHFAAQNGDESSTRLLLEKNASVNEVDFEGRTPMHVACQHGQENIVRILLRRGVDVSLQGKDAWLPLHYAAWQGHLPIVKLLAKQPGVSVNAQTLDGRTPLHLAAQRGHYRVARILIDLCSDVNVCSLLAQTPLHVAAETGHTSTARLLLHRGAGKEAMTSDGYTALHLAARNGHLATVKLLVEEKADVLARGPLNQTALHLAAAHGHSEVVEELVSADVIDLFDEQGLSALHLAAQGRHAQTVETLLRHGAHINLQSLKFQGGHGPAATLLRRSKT

[2] = biological target: T34, RSK1(Kin.Dom.1-N-terminal) (Homo sapiens, UniProt Q15418); experiment: kinome scan; type: binding; details: 10 µM
T34 construct: RSK1(Kin.Dom.1-N-terminal); purchased DiscoverX (KINOMEscan)

[3] = biological target: T35, RSK1(Kin.Dom.2-C-terminal) (Homo sapiens, UniProt Q15418); experiment: kinome scan; type: binding; details: 10 µM
T35 construct: RSK1(Kin.Dom.2-C-terminal); purchased DiscoverX (KINOMEscan)
T35 sequence (Q15418 418-675 limits assumed): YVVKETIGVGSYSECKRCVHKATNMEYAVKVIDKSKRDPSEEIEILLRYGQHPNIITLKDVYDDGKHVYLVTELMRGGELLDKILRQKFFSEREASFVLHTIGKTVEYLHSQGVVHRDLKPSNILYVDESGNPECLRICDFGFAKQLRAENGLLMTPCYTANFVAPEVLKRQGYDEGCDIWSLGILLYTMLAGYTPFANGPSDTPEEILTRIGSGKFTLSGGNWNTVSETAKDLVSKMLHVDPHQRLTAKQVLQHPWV

SGK3 = biological target: T36, SGK3 (Homo sapiens, UniProt Q96BR1); experiment: kinome scan; type: binding; details: 10 µM
T36 construct: purchased DiscoverX (KINOMEscan)
T36 sequence (Q96BR1 whole entry): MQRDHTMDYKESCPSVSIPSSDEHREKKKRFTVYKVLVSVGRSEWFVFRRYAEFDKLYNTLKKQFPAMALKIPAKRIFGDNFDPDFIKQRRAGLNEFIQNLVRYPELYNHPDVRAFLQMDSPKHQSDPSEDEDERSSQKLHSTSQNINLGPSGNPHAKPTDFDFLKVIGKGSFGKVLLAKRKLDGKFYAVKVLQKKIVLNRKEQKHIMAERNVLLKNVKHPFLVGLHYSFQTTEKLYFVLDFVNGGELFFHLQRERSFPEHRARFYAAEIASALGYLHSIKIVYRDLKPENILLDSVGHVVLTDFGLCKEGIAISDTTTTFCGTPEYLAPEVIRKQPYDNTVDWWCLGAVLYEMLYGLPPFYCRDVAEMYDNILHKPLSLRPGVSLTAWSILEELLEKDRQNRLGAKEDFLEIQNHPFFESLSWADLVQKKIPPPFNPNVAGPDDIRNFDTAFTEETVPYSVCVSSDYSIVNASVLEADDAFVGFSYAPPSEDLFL

SRPK3 = biological target: T37, SRPK3 (Homo sapiens, UniProt Q9UPE1); experiment: kinome scan; type: binding; details: 10 µM
T37 construct: purchased DiscoverX (KINOMEscan)

TNIK = biological target: T38, TNIK (Homo sapiens, UniProt Q9UKE5); experiment: kinome scan; type: binding; details: 10 µM
T38 construct: purchased DiscoverX (KINOMEscan)

TNK2 = biological target: T39, TNK2 (Homo sapiens, UniProt Q07912); experiment: kinome scan; type: binding; details: 10 µM
T39 construct: purchased DiscoverX (KINOMEscan)

TXK = biological target: T40, TXK (Homo sapiens, UniProt P42681); experiment: kinome scan; type: binding; details: 10 µM
T40 construct: purchased DiscoverX (KINOMEscan)

ULK3 = biological target: T41, ULK3 (Homo sapiens, UniProt Q6PHR2); experiment: kinome scan; type: binding; details: 10 µM
T41 construct: purchased DiscoverX (KINOMEscan)

YANK1 = biological target: T42, YANK1 (Homo sapiens, UniProt Q8WU08); experiment: kinome scan; type: binding; details: 10 µM
T42 construct: purchased DiscoverX (KINOMEscan)
T42 sequence (Q8WU08 whole entry): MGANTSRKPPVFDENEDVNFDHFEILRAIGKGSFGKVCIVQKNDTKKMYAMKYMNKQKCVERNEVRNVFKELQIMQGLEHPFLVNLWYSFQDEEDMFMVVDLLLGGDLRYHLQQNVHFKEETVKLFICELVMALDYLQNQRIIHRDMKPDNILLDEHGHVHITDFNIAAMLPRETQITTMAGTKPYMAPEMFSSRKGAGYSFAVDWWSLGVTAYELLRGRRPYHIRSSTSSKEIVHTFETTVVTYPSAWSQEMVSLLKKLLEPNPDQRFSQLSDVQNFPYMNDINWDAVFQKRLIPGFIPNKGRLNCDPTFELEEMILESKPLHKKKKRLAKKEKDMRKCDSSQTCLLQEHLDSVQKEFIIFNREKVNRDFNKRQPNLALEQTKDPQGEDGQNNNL

For `Nc1ccc(N=Nc2ccccc2)c(N)n1` [phenazopyridine, 2,6-diamino-3-(phenylazo)pyridine], the “phosphorylation of AKT” value (AKT) was “reduced phosphorylation of AKT”, the kinase inhibition [1] was 100 and the kinase inhibition (BMPR1B) was 95. For the same compound, the kinase inhibition (BMX) was 100, the kinase inhibition (BTK) was 100 and the kinase inhibition (CDK2) was 82. For the same compound, the kinase inhibition (CDK8) was 86, the kinase inhibition (CDKL1) was 100 and the kinase inhibition (CIT) was 72. The kinase inhibition (DDR1) was 96, the kinase inhibition (DRAK1) was 45 and the kinase inhibition (EIF2AK1) was 100. The kinase inhibition (FGFR2) was 93, the “remaining binding (% of control)” value (FLT3; 10 µM) was 25 and the remaining binding at 10 µM (FLT3; read-out: % Of control) was 25%. For the same compound, the kinase inhibition (HIPK1) was 58, the kinase inhibition (JNK3) was 91 and the kinase inhibition (LKB1) was 88. For the same compound, the kinase inhibition (LRRK2) was 100, the kinase inhibition (MAK) was 100 and the kinase inhibition (MERTK) was 100. The kinase inhibition (MLCK) was 96, the kinase inhibition (MYLK) was 100 and the kinase inhibition (NEK11) was 100. For the same compound, the kinase inhibition (NEK7) was 100, the kinase inhibition (PCTK2) was 98 and the kinase inhibition (PDPK1) was 100. The “remaining binding (% of control)” value (PIP5K2C; 10 µM) was 2.3, the remaining binding at 10 µM (PIP5K2C; read-out: % Of control) was 2.3% and the kinase inhibition (PRKCH) was 78. For the same compound, the kinase inhibition (PRKD3) was 100, the kinase inhibition (RAF1) was 100 and the kinase inhibition (RET(V804L)) was 100. For the same compound, the “remaining binding (% of control)” value (RET(V804M)) was 100, the “remaining binding (% of control)” value (RIOK1) was 93 and the kinase inhibition (RIPK4) was 100. The kinase inhibition [2] was 80, the kinase inhibition [3] was 86 and the kinase inhibition (SGK3) was 100. The kinase inhibition (SRPK3) was 94, the kinase inhibition (TNIK) was 75 and the kinase inhibition (TNK2) was 100. For the same compound, the “remaining binding (% of control)” value (TXK) was 100, the kinase inhibition (ULK3) was 100 and the kinase inhibition (YANK1) was 98.
